Laboratory results: PubChem BioAssay (NCI)
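Five concentrations, 48 hours, 96-well plates. Here, GI50 denotes the concentration required for 50% inhibition of growth. TGI denotes the concentration required for complete inhibition of growth.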

What was measured:
Experiment in all cases: NCI-60 cell line screen, 48 h
[1] = system: 786-0 renal
[2] = system: A498 renal
[3] = system: A549 NSCLC
[4] = system: ACHN renal
[5] = system: BT-549 breast
[6] = system: CAKI-1 renal
[7] = system: CCRF-CEM leukemia
[8] = system: COLO 205 colon
[9] = system: DU-145 prostate
[10] = system: EKVX NSCLC
[11] = system: HCC-2998 colon
[12] = system: HCT-116 colon
[13] = system: HCT-15 colon
[14] = system: HL-60(TB) leukemia
[15] = system: HOP-62 NSCLC
[16] = system: HOP-92 NSCLC
[17] = system: HS 578T breast
[18] = system: HT29 colon
[19] = system: IGROV1 ovarian
[20] = system: K-562 leukemia
[21] = system: KM12 colon
[22] = system: LOX IMVI melanoma
[23] = system: MALME-3M melanoma
[24] = system: MCF7 breast
[25] = system: MDA-MB-231 breast
[26] = system: MDA-MB-435
[27] = system: MOLT-4 leukemia
[28] = system: NCI-H226 lung
[29] = system: NCI-H23 lung
[30] = system: NCI-H460 lung
[31] = system: NCI-H522 lung
[32] = system: NCI/ADR-RES ovarian
[33] = system: OVCAR-3 ovarian
[34] = system: OVCAR-4 ovarian
[35] = system: OVCAR-5 ovarian
[36] = system: OVCAR-8 ovarian
[37] = system: PC-3 prostate
[38] = system: RPMI-8226 leukemia
[39] = system: RXF 393 renal
[40] = system: SF-268 CNS
[41] = system: SF-295 CNS
[42] = system: SF-539 CNS
[43] = system: SK-MEL-2 melanoma
[44] = system: SK-MEL-28 melanoma
[45] = system: SK-MEL-5 melanoma
[46] = system: SK-OV-3 ovarian
[47] = system: SN12C renal
[48] = system: SNB-19 CNS
[49] = system: SNB-75 CNS
[50] = system: SR leukemia
[51] = system: SW-620 colon
[52] = system: T-47D breast
[53] = system: TK-10 renal
[54] = system: U251 CNS
[55] = system: UACC-257 melanoma
[56] = system: UACC-62 melanoma
[57] = system: UO-31 renal
[58] = system: M14 melanoma

Question: What does the source list for `CSC1=Nc2c(c(C)c(C)n2COC(CO)CO)C2=NC(=O)CC(C)N12` (stereo not drawn)?
Answer: GI50 [1]: > 100 µM; TGI [1]: > 100 µM; GI50 [2]: > 100 µM; TGI [2]: > 100 µM; GI50 [3]: > 100 µM; TGI [3]: > 100 µM; GI50 [4]: > 100 µM; TGI [4]: > 100 µM; GI50 [5]: > 100 µM; TGI [5]: > 100 µM; GI50 [6]: > 100 µM; TGI [6]: > 100 µM; GI50 [7]: 16.5 µM; TGI [7]: 49.5 µM; GI50 [8]: > 100 µM; TGI [8]: > 100 µM; GI50 [9]: > 100 µM; TGI [9]: > 100 µM; GI50 [10]: > 100 µM; TGI [10]: > 100 µM; GI50 [11]: > 100 µM; TGI [11]: > 100 µM; GI50 [12]: > 100 µM; TGI [12]: > 100 µM; GI50 [13]: > 100 µM; TGI [13]: > 100 µM; GI50 [14]: 0.0864 µM; TGI [14]: > 100 µM; GI50 [15]: > 100 µM; TGI [15]: > 100 µM; GI50 [16]: > 100 µM; TGI [16]: > 100 µM; GI50 [17]: > 100 µM; TGI [17]: > 100 µM; GI50 [18]: > 100 µM; TGI [18]: > 100 µM; GI50 [19]: > 100 µM; TGI [19]: > 100 µM; GI50 [20]: > 100 µM; TGI [20]: > 100 µM; GI50 [21]: > 100 µM; TGI [21]: > 100 µM; GI50 [22]: > 100 µM; TGI [22]: > 100 µM; GI50 [23]: > 100 µM; TGI [23]: > 100 µM; GI50 [24]: > 100 µM; TGI [24]: > 100 µM; GI50 [25]: > 100 µM; TGI [25]: > 100 µM; GI50 [26]: > 100 µM; TGI [26]: > 100 µM; GI50 [27]: > 100 µM; TGI [27]: > 100 µM; GI50 [28]: > 100 µM; TGI [28]: > 100 µM; GI50 [29]: > 100 µM; TGI [29]: > 100 µM; GI50 [30]: > 100 µM; TGI [30]: > 100 µM; GI50 [31]: > 100 µM; TGI [31]: > 100 µM; GI50 [32]: > 100 µM; TGI [32]: > 100 µM; GI50 [33]: > 100 µM; TGI [33]: > 100 µM; GI50 [34]: > 100 µM; TGI [34]: > 100 µM; GI50 [35]: > 100 µM; TGI [35]: > 100 µM; GI50 [36]: > 100 µM; TGI [36]: > 100 µM; GI50 [37]: > 100 µM; TGI [37]: > 100 µM; GI50 [38]: > 100 µM; TGI [38]: > 100 µM; GI50 [39]: > 100 µM; TGI [39]: > 100 µM; GI50 [40]: > 100 µM; TGI [40]: > 100 µM; GI50 [41]: > 100 µM; TGI [41]: > 100 µM; GI50 [42]: > 100 µM; TGI [42]: > 100 µM; GI50 [43]: > 100 µM; TGI [43]: > 100 µM; GI50 [44]: > 100 µM; TGI [44]: > 100 µM; GI50 [45]: > 100 µM; TGI [45]: > 100 µM; GI50 [46]: > 100 µM; TGI [46]: > 100 µM; GI50 [47]: > 100 µM; TGI [47]: > 100 µM; GI50 [48]: > 100 µM; TGI [48]: > 100 µM; GI50 [49]: 30.7 µM; TGI [49]: > 100 µM; GI50 [50]: > 100 µM; TGI [50]: > 100 µM; GI50 [51]: > 100 µM; TGI [51]: > 100 µM; GI50 [52]: > 100 µM; TGI [52]: > 100 µM; GI50 [53]: > 100 µM; TGI [53]: > 100 µM; GI50 [54]: > 100 µM; TGI [54]: > 100 µM; GI50 [55]: > 100 µM; TGI [55]: > 100 µM; GI50 [56]: > 100 µM; TGI [56]: > 100 µM; GI50 [57]: > 100 µM; TGI [57]: > 100 µM

Question: What does the source list for `COc1ccc2cc(Cn3cc[n+](Cc4ccc5ccccc5c4)c3)ccc2c1`?
Answer: GI50 [1]: 4.72 µM; TGI [1]: 19.6 µM; GI50 [2]: 1.03 µM; TGI [2]: 9.13 µM; GI50 [3]: 8.16 µM; TGI [3]: 23.7 µM; GI50 [4]: 14.3 µM; TGI [4]: 30.4 µM; GI50 [5]: 1.96 µM; TGI [5]: 4.17 µM; GI50 [7]: 2.66 µM; TGI [7]: 10.4 µM; GI50 [8]: 1.44 µM; TGI [8]: 3.28 µM; GI50 [9]: 4.49 µM; TGI [9]: 16.9 µM; GI50 [10]: 3.71 µM; TGI [10]: 15.5 µM; GI50 [11]: 2.11 µM; TGI [11]: 5.28 µM; GI50 [12]: 2.23 µM; TGI [12]: 7.43 µM; GI50 [13]: 15.8 µM; TGI [13]: 32.4 µM; GI50 [14]: 1.34 µM; TGI [14]: 3.89 µM; GI50 [15]: 4.23 µM; TGI [15]: 20.9 µM; GI50 [16]: 0.672 µM; TGI [16]: 3.33 µM; GI50 [17]: 2.32 µM; TGI [17]: 9.92 µM; GI50 [18]: 1.76 µM; TGI [18]: 8.23 µM; GI50 [19]: 1.75 µM; TGI [19]: 4.87 µM; GI50 [20]: 3.51 µM; TGI [20]: 16.3 µM; GI50 [21]: 1.72 µM; TGI [21]: 3.43 µM; GI50 [22]: 1.5 µM; TGI [22]: 2.86 µM; GI50 [58]: 1.77 µM; TGI [58]: 4.21 µM; GI50 [23]: 1.53 µM; TGI [23]: 4.03 µM; GI50 [24]: 2.57 µM; TGI [24]: 9.88 µM; GI50 [25]: 1.55 µM; TGI [25]: 3.81 µM; GI50 [26]: 1.79 µM; TGI [26]: 4.12 µM; GI50 [27]: 2.31 µM; TGI [27]: 7.62 µM; GI50 [28]: 2.97 µM; TGI [28]: 16.4 µM; GI50 [29]: 2.37 µM; TGI [29]: 12 µM; GI50 [30]: 3.24 µM; TGI [30]: 12.7 µM; GI50 [31]: 1.53 µM; TGI [31]: 4.68 µM; GI50 [32]: > 100 µM; TGI [32]: > 100 µM; GI50 [33]: 1.62 µM; TGI [33]: 4.01 µM; GI50 [34]: 2.27 µM; TGI [34]: 8.06 µM; GI50 [35]: 2.7 µM; TGI [35]: 12.5 µM; GI50 [36]: 3.26 µM; TGI [36]: 13.1 µM; GI50 [37]: 2.13 µM; TGI [37]: 9.17 µM; GI50 [38]: 1.33 µM; TGI [38]: 3.65 µM; GI50 [39]: 1.75 µM; TGI [39]: 4.59 µM; GI50 [40]: 2.53 µM; TGI [40]: 11.8 µM; GI50 [41]: 4.95 µM; TGI [41]: 21.9 µM; GI50 [42]: 2.37 µM; TGI [42]: 7.81 µM; GI50 [43]: 1.91 µM; TGI [43]: 4.65 µM; GI50 [44]: 2 µM; TGI [44]: 5.05 µM; GI50 [45]: 1.33 µM; TGI [45]: 2.62 µM; GI50 [46]: 3.19 µM; TGI [46]: 12.6 µM; GI50 [47]: 2.53 µM; TGI [47]: 8.97 µM; GI50 [48]: 1.93 µM; TGI [48]: 6.65 µM; GI50 [49]: 1.39 µM; TGI [49]: 4.19 µM; GI50 [50]: 1.68 µM; TGI [50]: 4.27 µM; GI50 [51]: 3.12 µM; TGI [51]: 14.1 µM; GI50 [52]: 1.87 µM; TGI [52]: 7.56 µM; GI50 [53]: 3.72 µM; TGI [53]: 15 µM; GI50 [54]: 2.79 µM; TGI [54]: 12.3 µM; GI50 [55]: 1.95 µM; TGI [55]: 5.09 µM; GI50 [56]: 1.49 µM; TGI [56]: 3.25 µM; GI50 [57]: 12.7 µM; TGI [57]: 32.1 µM
